Measurements: article PMC12063423, “Identification of the methionine transporter MetQ in Streptococcus suis and its contribution to virulence and biofilm formation” (Veterinary Research, 2025)
pKd: −log10 of the molar value.

Target: T1, MetQ (SSU1577) (Streptococcus suis, UniProt A0A0H3N1C6)
T1 construct: gene SSUBM407_1651; mature protein aa 31-283 without signal peptide (1-29) and lipobox Cys30; codon-optimised, pET16b, E. coli BL21(DE3); full-length precursor 283 aa
Experiment: isothermal titration calorimetry, one-site model
Format: binding
Conditions: PBS pH 7.3, 25 °C; 38.8 µM protein in cell, 200 µM ligand in syringe

T1 sequence (A0A0H3N1C6 entry or part of it): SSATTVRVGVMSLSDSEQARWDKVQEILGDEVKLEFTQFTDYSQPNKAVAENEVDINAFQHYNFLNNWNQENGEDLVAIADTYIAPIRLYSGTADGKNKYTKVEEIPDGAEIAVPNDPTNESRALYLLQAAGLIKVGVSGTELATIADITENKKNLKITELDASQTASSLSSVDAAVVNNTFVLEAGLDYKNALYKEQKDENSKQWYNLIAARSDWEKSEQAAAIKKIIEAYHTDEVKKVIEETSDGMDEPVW

`CSCC[C@H](N)C(=O)O` [L-methionine] showed a pKd of 5.15.
